Series [1] has as its target T1, GST fusion human Keap1 (amino acid residue: 325-624) protein (Homo sapiens, UniProt Q14145).
T1 construct: GST fusion human Keap1 (amino acid residue: 325-624) protein; purchased Protein tech Ag0779
Put plainly: Keap1-Nrf2 binding inhibition test (fluorescence polarization). Conditions: compound concentration of 100 nM; read-out: inhibition rate. In short, it runs like this: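 Fluorescence polarization with FITC-labelled Nrf2 peptide (FITC-Ahx-LDEETGEFL-NH2) and GST-human Keap1 (325-624) in 20 mM Tris pH 7.5, 150 mM NaCl, 0.05% Tween 20, 5 mM DTT, BSA; 30 min at room temperature, ex 482/em 530 nm. Percent inhibition at 100 nM compound, Keap1-free wells = 100%.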

The test system of series [2] is NQO1. In words: NQO1 enzyme induction test (in vitro) in Hepa1c1c7 cells. To be noted: Mus musculus, Hepa-1c1c7, 48 h, concentration to elevate the NQO1 activity by 1.5 times, about 48 hours, read-out: EC150. The series is classed as cell-based. In short, it runs like this: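 Mouse Hepa1c1c7 cells treated about 48 h with compound (0.1% DMSO final), then lysed. NQO1 activity read as MTT reduction at 540 nm with menadione substrate, 5 min at room temperature, and corrected for cell number by CellTiter-Glo. EC150 is the concentration raising NQO1 activity 1.5-fold.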

Series [3] concerns NQO1. Put plainly: NQO1 expression induction test in mouse kidney (single administration). Conditions: Mus musculus, po, 6 h, BALB/c mouse kidney, 6 hours after administration, ratio to control group. The series is classed as in vivo. In short, it runs like this:
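Female BALB/c mice received a single oral dose of compound in 0.5% methylcellulose, with untreated mice as controls. Six hours later, left-kidney NQO1 mRNA was measured by SYBR real-time RT-PCR normalised to GAPDH. Induction was expressed as the ratio of mean treated to mean control expression.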

Series [4] in a line: Metabolism test using human liver microsome fractions. It counts as in vitro ADME. Conditions: human liver microsomes, test compound 10 μmol/L, NADPH and UDP-glucuronic acid, 37° C. In short, it runs like this: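 Human or monkey liver microsomes (1 mg protein) with NADPH-regenerating system plus UDP-glucuronic acid/UGT mix, 37 °C; compound at 10 μmol/L final. Samples at 0–30 min quenched in acetonitrile, UV-HPLC; elimination rate (pmol/min/mg-P) from linear slope of residual amount over time.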

T1 sequence (Q14145 325-624): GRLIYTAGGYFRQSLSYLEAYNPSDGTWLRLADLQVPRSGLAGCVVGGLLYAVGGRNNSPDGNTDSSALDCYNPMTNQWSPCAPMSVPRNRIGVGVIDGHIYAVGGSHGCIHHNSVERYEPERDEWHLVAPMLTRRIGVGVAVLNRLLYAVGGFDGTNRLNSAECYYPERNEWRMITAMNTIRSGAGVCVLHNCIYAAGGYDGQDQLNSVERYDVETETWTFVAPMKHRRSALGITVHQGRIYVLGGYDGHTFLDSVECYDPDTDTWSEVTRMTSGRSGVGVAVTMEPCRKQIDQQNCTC

As for `CC[C@@H]1CN(Cc2cc(C(c3ccc4c(nnn4C)c3C)C(C)(C)C(=O)O)ccc2Cl)Cc2cc3ncccc3cc2O1` (stereo partly drawn) [Example 80-(b), 3-(4-chloro-3-(((R)-2-ethyl-2,3-dihydro-[1,4]oxazepino[7,6-g]quinolin-4 (5H)-yl)methyl)phenyl)-3-(1,4-dimethyl-1H-benzo[d][1,2, 3]triazol-5-yl)-2,2-dimethylpropanoic Acid], the inhibition at 0.1 µM in series [1] is no less than 50%. For the same molecule, the EC (1.5-fold NQO1 activity) in series [2] lay within 0.005 to 0.05 µM. The fold induction at 20 mg/kg in series [3] was greater than 6. In addition, in series [4], the Human metabolic rate entry is recorded as “D (200≤metabolic rate<250 pmol/min/me protein)”.

Consider `CC[C@@H]1CN(Cc2cc(C(c3ccc4c(nnn4C)c3C)C(C)(C)C(=O)O)ccc2C)Cc2nc3ccccc3cc2O1` (stereo partly drawn) [Example 10-(b), 3-(1,4-dimethyl-1H-benzo[d][1,2,3]triazol-5-yl)-3-(3-(((R)-2-ethyl-2,3-dihydro-[1,4]oxazepino[6,7-b]quinolin-4 (5H)-yl)methyl)-4-methylphenyl)-2,2-dimethylpropanoic Acid], for which the inhibition at 0.1 µM in series [1] was no less than 50%. In series [2], the EC (1.5-fold NQO1 activity) fell in the range of 0.0005 to 0.005 µM. Further, the fold induction at 30 mg/kg in series [3] is greater than 6. The Human metabolic rate result in series [4] is reported as “C (150≤metabolic rate<200 pmol/min/mg protein)”.

For the molecule `CC[C@@H]1CN(Cc2cc(C(c3ccc4c(nnn4C)c3C)C(C)(C)C(=O)O)ccc2C)Cc2cc3ccccc3nc2O1` (stereo partly drawn) [Example 9-(b), 3-(1,4-dimethyl-1H-benzo[d][1,2,3]triazol-5-yl)-3-(3-(((R)-2-ethyl-2,3-dihydro-[1,4]oxazepino[7,6-b]quinolin-4 (5H)-yl)methyl)-4-methylphenyl)-2,2-dimethylpropanoic Acid], the inhibition at 0.1 µM in series [1] was no less than 50%. For the same molecule, in series [2], the EC (1.5-fold NQO1 activity) is 0.0005 to 0.005 µM. The fold induction at 30 mg/kg in series [3] was in the range of 3 to 6. Besides, the Human metabolic rate entry in series [4] is given as “D (200≤metabolic rate<250 pmol/min/me protein)”.

With `Cc1ccc(C(c2ccc3c(nnn3C)c2C)C(C)(C)C(=O)O)cc1CN1Cc2cc3ncccc3cc2O[C@H](C)C1` (stereo partly drawn) [Example 75-(b), 3-(1,4-dimethyl-1H-benzo[d][1,2,3]triazol-5-yl)-2,2-dimethyl-3-(4-methyl-3-(((R)-2-methyl-2,3-dihydro-[1,4]oxazepino[7,6-g]quinolin-4 (5H)-yl)methyl)phenyl) propanoic Acid], in series [1], the inhibition at 0.1 µM was no less than 50%. Moreover, the EC (1.5-fold NQO1 activity) in series [2] fell in the range of 0.0005 to 0.005 µM. In series [3], the fold induction at 20 mg/kg is greater than 6. Moreover, in series [4], the Human metabolic rate entry was “E (metabolic rate≥250 pmol/min/mg protein)”.

In the case of `CC[C@@H]1CN(Cc2cc(C(c3ccc4c(nnn4C)c3C)C(C)(C)C(=O)O)ccc2C)Cc2ccc3c(c2O1)OC(F)(F)O3` (stereo partly drawn) [Example 2-(b), 3-(1,4-dimethyl-1H-benzo[d][1,2,3]triazol-5-yl)-3-(3-(((R)-9-ethyl-2,2-difluoro-8,9-dihydro-[1,3]dioxolo[4′,5′:3,4]benzo[1,2-f][1,4]oxazepin-7(6H)-yl)methyl)-4-methylphenyl)-2,2-dimethylpropanoic Acid], the inhibition at 0.1 µM in series [1] is no less than 50%. Besides, the EC (1.5-fold NQO1 activity) in series [2] fell in the range of 0.0005 to 0.005 µM. Besides, the fold induction at 30 mg/kg in series [3] lay in the range of 3 to 6. Moreover, the Human metabolic rate entry in series [4] is recorded as “A (metabolic rate<100 pmol/min/mg protein)”.

On to `CC[C@@H]1CN(Cc2cc(C(c3ccc4c(nnn4C)c3C)C(C)(C)C(=O)O)ccc2C)Cc2c(ccc3ccccc23)O1` (stereo partly drawn) [Example 16-(b), 3-(1,4-dimethyl-1H-benzo[d][1,2,3]triazol-5-yl)-3-(3-(((R)-4-ethyl-3,4-dihydronaphtho[1,2-f][1,4]oxazepin-2(1H)-yl)methyl)-4-methylphenyl)-2,2-dimethylpropanoic Acid], for which the inhibition at 0.1 µM in series [1] is no less than 50%. Besides, the EC (1.5-fold NQO1 activity) in series [2] is 0.05 to 0.5 µM. Moreover, the fold induction at 30 mg/kg in series [3] is no more than 3. For the same molecule, in series [4], the Human metabolic rate result is recorded as “E (metabolic rate≥250 pmol/min/mg protein)”.

`CC[C@@H]1CN(Cc2cc(C(c3ccc4c(nnn4C)c3C)C(C)(C)C(=O)O)ccc2C)Cc2cc3cn(C)nc3cc2O1` (stereo partly drawn) [Example 51-(b), 3-(1,4-dimethyl-1H-benzo[d][1,2,3]triazol-5-yl)-3-(3-(((R)-8-ethyl-2-methyl-2,5,7,8-tetrahydro-6H-[1,4]oxazepino[6,7-f]indazol-6-yl)methyl)-4-methylphenyl)-2,2-dimethylpropanoic Acid]: the inhibition at 0.1 µM in series [1] was no less than 50%. In addition, in series [2], the EC (1.5-fold NQO1 activity) lay in the range of 0.0005 to 0.005 µM. In addition, in series [3], the fold induction at 30 mg/kg is greater than 6. In series [4], the Human metabolic rate entry is “B (100≤metabolic rate<150 pmol/min/mg protein)”.

Consider `CC[C@@H]1CN(Cc2cc(C(c3ccc4c(nnn4C)c3C)C(C)(C)C(=O)O)ccc2C)Cc2ccccc2O1` (single isomer, unassigned) [Example C1, reference compound], for which the inhibition at 0.1 µM in series [1] is no less than 50%. The EC (1.5-fold NQO1 activity) in series [2] fell in the range of 0.005 to 0.05 µM. In series [3] (Dose 10 mg/kg), the fold induction at 10 mg/kg is no more than 3. Further, the Human metabolic rate result in series [4] is “C (150≤metabolic rate<200 pmol/min/mg protein)”.

`CC[C@@H]1CN(Cc2cc(C(c3ccc4c(nnn4C)c3C)C(C)(C)C(=O)O)ccc2C)Cc2ccc3c(c2O1)CCCC3` (stereo partly drawn) [Example 7-(b), 3-(1,4-dimethyl-1H-benzo[d][1,2,3]triazol-5-yl)-3-(3-(((R)-2-ethyl-2,3,8,9,10,11-hexahydronaphtho[2,1-f][1,4]oxazepin-4(5H)-yl)methyl)-4-methylphenyl)-2,2-dimethylpropanoic Acid]: in series [1], the inhibition at 0.1 µM was no less than 50%. In addition, the EC (1.5-fold NQO1 activity) in series [2] is 0.005 to 0.05 µM. Besides, the fold induction at 30 mg/kg in series [3] lay in the range of 3 to 6. For the same molecule, in series [4], the Human metabolic rate result is recorded as “B (100≤metabolic rate<150 pmol/min/mg protein)”.

Regarding `CC[C@@H]1CN(Cc2cc(C(c3ccc4c(nnn4C)c3C)C(C)(C)C(=O)O)ccc2C)Cc2cc3cccnc3cc2O1` (stereo partly drawn) [Example 11-(b), 3-(1,4-dimethyl-1H-benzo[d][1,2,3]triazol-5-yl)-3-(3-(((R)-2-ethyl-2,3-dihydro-[1,4]oxazepino[6,7-g]quinolin-4(5H)-yl)methyl)-4-methylphenyl)-2,2-dimethylpropanoic Acid], the inhibition at 0.1 µM in series [1] is no less than 50%. Besides, in series [2], the EC (1.5-fold NQO1 activity) was 0.0005 to 0.005 µM. The fold induction at 30 mg/kg in series [3] was greater than 6. The Human metabolic rate result in series [4] was “D (200≤metabolic rate<250 pmol/min/me protein)”.

`CC[C@@H]1CN(Cc2cc(C(c3ccc4c(nnn4CC)c3C)C(C)(C)C(=O)O)ccc2C)Cc2cc3ncccc3cc2O1` (stereo partly drawn) [Example 59-(b), 3-(3-(((R)-2-ethyl-2,3-dihydro-[1,4]oxazepino[7,6-g]quinolin-4(5H)-yl)methyl)-4-methylphenyl)-3-(1-ethyl-4-methyl-1H-benzo[d][1,2,3]triazol-5-yl)-2,2-dimethylpropanoic Acid]: in series [1], the inhibition at 0.1 µM was no less than 50%. In series [2], the EC (1.5-fold NQO1 activity) is 0.0005 to 0.005 µM. Moreover, the fold induction at 30 mg/kg in series [3] was greater than 6. Also, the Human metabolic rate entry in series [4] is reported as “D (200≤metabolic rate<250 pmol/min/me protein)”.

As to `CC[C@@H]1CN(Cc2cc(C(c3ccc4c(nnn4C)c3C)C(C)(C)C(=O)O)ccc2C)Cc2c(cnc3ccccc23)O1` (stereo partly drawn) [Example 19-(b), 3-(1,4-dimethyl-1H-benzo[d][1,2,3]triazol-5-yl)-3-(3-(((R)-4-ethyl-3,4-dihydro-[1,4]oxazepino[7,6-c]quinolin-2(1H)-yl)methyl)-4-methylphenyl)-2,2-dimethylpropanoic Acid], in series [1], the inhibition at 0.1 µM was no less than 50%. The EC (1.5-fold NQO1 activity) in series [2] is 0.0005 to 0.005 µM. For the same molecule, the fold induction at 30 mg/kg in series [3] was no more than 3. In addition, in series [4], the Human metabolic rate result is on record as “E (metabolic rate≥250 pmol/min/mg protein)”.

Turning to `CC[C@@H]1CN(Cc2cc(C(c3ccc4c(c3)nnn4C)C(C)(C)C(=O)O)ccc2C)Cc2cc3ncccc3cc2O1` (stereo partly drawn) [Example 82-(b), 3-(3-(((R)-2-ethyl-2,3-dihydro-[1,4]oxazepino[7,6-g]quinolin-4 (5H)-yl)methyl)-4-methylphenyl)-2,2-dimethyl-3-(1-methyl-1H-benzo[d][1,2,3]triazol-5-yl) propanoic Acid], the inhibition at 0.1 µM in series [1] is no less than 50%. For the same molecule, the EC (1.5-fold NQO1 activity) in series [2] fell in the range of 0.005 to 0.05 µM. In series [3], the fold induction at 20 mg/kg was greater than 6. For the same molecule, in series [4], the Human metabolic rate entry is recorded as “B (100≤metabolic rate<150 pmol/min/mg protein)”.

In the case of `Cc1ccc(C(c2ccc3c(nnn3C)c2C)C(C)(C)C(=O)O)cc1CN1CCOc2cc3cccnc3cc2C1` (centres unmarked) [Example 63-(b), 3-(3-((2,3-dihydro-[1,4]oxazepino[7,6-g]quinolin-4 (5H)-yl)methyl)-4-methylphenyl)-3-(1,4-dimethyl-1H-benzo[d][1,2,3]triazol-5-yl)-2,2-dimethylpropanoic Acid], the inhibition at 0.1 µM in series [1] is no less than 50%. Besides, the EC (1.5-fold NQO1 activity) in series [2] is 0.005 to 0.05 µM. The fold induction at 30 mg/kg in series [3] lay in the range of 3 to 6. In series [4], the Human metabolic rate result was “C (150≤metabolic rate<200 pmol/min/mg protein)”.

The record behind these values is patent US12559504B2, “Benzotriazole derivative” (UBE CORPORATION, priority 2019, dated 2026).
